Source: US7041785B1, “B1-bradykinin receptor antagonists and use thereof” (Université de Sherbrooke, priority 1996, dated 2006)
Non-standard residues stand in square brackets, D forms with d. Residues, ends and D or L forms follow the SMILES beside them. d2Nal = N[C@H](Cc1ccc2ccccc2c1)C(=O)O; Hyp = O=C(O)[C@@H]1C[C@@H](O)CN1; dTic = O=C(O)[C@H]1Cc2ccccc2CN1; Sar = CNCC(=O)O

Tests used:
B1 receptor = molecular target: T1, B1 receptor (Oryctolagus cuniculus, UniProt P48748); experiment: cell-based; conditions: for Kb: Rb.A. pA2, apparent affinity as antagonist vs desArg9BK
T1 sequence (P48748 1-352): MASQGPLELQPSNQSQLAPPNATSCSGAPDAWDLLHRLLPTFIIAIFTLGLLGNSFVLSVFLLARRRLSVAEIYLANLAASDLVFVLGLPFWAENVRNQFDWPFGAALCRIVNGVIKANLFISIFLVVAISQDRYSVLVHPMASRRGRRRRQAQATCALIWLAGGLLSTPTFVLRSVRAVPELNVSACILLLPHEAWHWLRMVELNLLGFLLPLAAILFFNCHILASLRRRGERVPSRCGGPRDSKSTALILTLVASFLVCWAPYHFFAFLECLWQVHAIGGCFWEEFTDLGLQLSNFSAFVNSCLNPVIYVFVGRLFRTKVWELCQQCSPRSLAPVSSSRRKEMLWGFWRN
Outline: (§1)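 Isolated rabbit jugular vein (captopril 1 μmol/L), guinea pig ileum, endothelium-free rabbit aorta and human umbilical vein, in Krebs at 37 °C, with isometric tension recorded. Agonism was tested at 10 μg/mL.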

B2 receptor [1] = molecular target: T2, B2 receptor (Cavia porcellus, UniProt O70526); experiment: cell-based; conditions: for G.P.I. pA2: vs BK, Inactive = no detectable antagonistic effect at ≦ 10 μg/ml, F.ag. full agonist, P.ag. partial agonist
T2 sequence (O70526 1-372): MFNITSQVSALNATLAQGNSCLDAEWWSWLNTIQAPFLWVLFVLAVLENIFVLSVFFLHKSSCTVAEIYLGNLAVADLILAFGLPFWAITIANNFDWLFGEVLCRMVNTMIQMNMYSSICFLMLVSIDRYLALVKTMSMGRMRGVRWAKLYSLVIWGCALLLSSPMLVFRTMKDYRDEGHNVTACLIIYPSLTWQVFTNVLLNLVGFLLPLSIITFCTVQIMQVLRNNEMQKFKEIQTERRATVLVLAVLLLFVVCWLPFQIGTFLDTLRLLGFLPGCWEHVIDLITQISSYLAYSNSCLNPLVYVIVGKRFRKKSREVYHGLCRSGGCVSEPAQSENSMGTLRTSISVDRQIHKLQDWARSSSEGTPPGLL
Outline: as §1

human B2 receptor = molecular target: T3, human B2 receptor (Homo sapiens, UniProt P30411); experiment: Human umbilical vein bioassay in presence of Lys(Leu8)desArg9BK, B2 receptor; type: cell-based; conditions: vs BK, Lys(Leu8)desArg9BK 1 μmol/L present
T3 construct: Helical strips of HUV were prepared according to Gobeil et al; from tissue; host or cells: human umbilical vein helical strips
T3 sequence (P30411 1-391): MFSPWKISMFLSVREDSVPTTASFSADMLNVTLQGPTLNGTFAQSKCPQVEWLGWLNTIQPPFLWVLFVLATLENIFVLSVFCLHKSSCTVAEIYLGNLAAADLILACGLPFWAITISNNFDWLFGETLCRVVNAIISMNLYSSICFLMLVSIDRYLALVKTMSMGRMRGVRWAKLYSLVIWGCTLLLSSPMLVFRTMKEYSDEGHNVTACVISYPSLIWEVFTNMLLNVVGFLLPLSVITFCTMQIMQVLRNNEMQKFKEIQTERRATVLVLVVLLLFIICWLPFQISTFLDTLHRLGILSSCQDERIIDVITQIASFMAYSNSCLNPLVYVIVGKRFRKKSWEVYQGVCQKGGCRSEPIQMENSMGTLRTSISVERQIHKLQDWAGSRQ
Text: Tissues were taken from New Zealand white rabbits (1.5–2.5 kg) and Dunken Hartley guinea pigs (250–350 g) of either sex, killed by stunning and exsanguination. Umbilical cords were taken from healthy women 22–40 years old after spontaneous delivery at term. The rabbit jugular vein (RbJV), the guinea pig ileum (GPI), two preparations containing B2 receptors, the rabbit aorta (RbA) (B1 receptor) and the human umbilical vein (HUV), a mixed preparation containing both B1 and B2 receptors^10, were used. Helical strips of RbJV treated with 1 μmol/L of captopril to avoid peptide degradation by the angiotensin-converting enzyme (ACE), alias kininase II were prepared according to Gaudreau et al.^11 Helical strips of RbA devoid of endothelium were prepared according to Furchgott and Bhadrakom^12. Longitudinal segments of GPI were prepared with the procedure described by Rang^13. Helical strips of HUV were prepared according to Gobeil et al.^10. The tissues were suspended in 10-ml organ baths containing warm (37EC), oxygenated (95% O2–5% CO2) Krebs solution of the following composition in mmol/L; NaCl: 118.1; KCl: 4.7; CaCl26H2O: 2.5; KH2PO4: 1.2; MgSO47H2O: 1.18; NaHCO3: 25.0 and D-Glucose: 5.5. The RbA and the HUV were stretched with an initial tension of 2 g, whereas the RbJV and the GPI were loaded with 0.5 g. Changes of tension produced by the various agents were measured with Grass isometric transducers (model FT 03C, Grass Instrument Co., Quincy, Mass.). […] Before testing the drugs, the tissues were allowed to equilibrate for 60–120 min during which time the tissues were repeatedly washed and the tension readjusted every 15 min.
At the beginning of each experiment, a submaximal dose of bradykinin (BK) (9 nmol/L), was applied repeatedly on the RbJV, the GPI or the HUV to ensure that tissues responded with stable contractions. […] A similar protocol was used for the HUV.
Repeated applications of a singl and double concentration of BK (on RbJV, GPI and HUV) and of desArg^9BK (RbA and HUV) were made in the absence and in presence of the various peptides to evaluate their apparent affinities as antagonists, in terms of pA2 (-log10 of the molar concentration of antagonist that reduces the effect of a double concentration of agonist to that of a single one)^14. The antagonists were applied 10 min before measuring the myotropic effects of either BK (the B2 receptor agonist) or desArg^9BK (the B1 receptor agonist). […] All kinin antagonists were initially applied to tissues at concentration of 10 μg/mL to measure their potential agonistic activities (α^E) in comparison with BK (in the B2 receptor preparations) or desArg^9BK (in the B1 receptor preparations).

B2 receptor [2] = molecular target: T4, B2 receptor (Oryctolagus cuniculus, UniProt Q28642); experiment: cell-based
T4 sequence (Q28642 1-367): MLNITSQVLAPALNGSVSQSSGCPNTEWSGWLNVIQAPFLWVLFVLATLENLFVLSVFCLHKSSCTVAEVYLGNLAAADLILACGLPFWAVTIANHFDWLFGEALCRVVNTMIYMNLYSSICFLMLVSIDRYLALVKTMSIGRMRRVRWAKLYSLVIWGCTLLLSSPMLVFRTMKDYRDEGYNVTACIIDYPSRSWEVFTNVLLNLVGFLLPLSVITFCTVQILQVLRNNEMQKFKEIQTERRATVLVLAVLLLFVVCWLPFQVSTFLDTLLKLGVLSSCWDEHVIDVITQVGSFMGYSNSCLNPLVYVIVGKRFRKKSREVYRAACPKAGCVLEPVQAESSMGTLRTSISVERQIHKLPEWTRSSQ
Outline: as §1

[3] = antagonist applied 10 min before, Inactive = no detectable antagonistic effect at ≦ 10 μg/ml
[4] = residual agonistic activity at 10 μg/mL in comparison with BK

SMILES | Kb (B1 receptor; [3]) [nM] | G.P.I. pA2 (B2 receptor [1]) | Human umbilical vein B2 receptor pA2 (human B2 receptor) | Kb (B2 receptor [2]) [nM] | Rb.A. pA2 (B1 receptor; apparent affinity as antagonist vs desArg9BK, antagonist applied 10 min before, Inactive = no detectable antagonistic effect at ≦ 10 μg/ml) | Rb.A. α^E (B1 receptor; residual agonistic activity at 10 μg/mL in comparison with desArg9BK) | G.P.I. α^E (B2 receptor [1]; [4]) | Rb.J.V. α^E (B2 receptor [2]; [4])
CC(C)C[C@H](NC(=O)[C@H]1Cc2ccccc2CN1C(=O)[C@H](CO)NC(=O)[C@H](Cc1ccccc1)NC(=O)CNC(=O)[C@@H]1CCCN1C(=O)[C@@H]1CCCN1C(=O)[C@@H](N)CCCNC(=N)N)C(=O)O [Compound 8, (D-Tic^7, Leu^8)desArg^9BK] (H-RPPGFS[dTic]L-OH; N-terminus and C-terminus assumed) | 1380 | Inactive | Inactive | – | – | – | – | –
CNCC(=O)N[C@@H](CCCNC(=N)N)C(=O)N1CCC[C@H]1C(=O)N1CCC[C@H]1C(=O)NCC(=O)N[C@@H](Cc1ccccc1)C(=O)N[C@@H](CO)C(=O)N1Cc2ccccc2C[C@@H]1C(=O)N[C@@H](CC(C)C)C(=O)O [Compound 9, Sar(D-Tic^7, Leu^8)desArg^9BK] (H-[Sar]RPPGFS[dTic]L-OH; N-terminus and C-terminus assumed) | 692 | Inactive | – | – | – | – | – | –
CC(C)C[C@H](NC(=O)[C@H]1Cc2ccccc2CN1C(=O)[C@H](CO)NC(=O)[C@H](Cc1ccccc1)NC(=O)CNC(=O)[C@@H]1CCCN1C(=O)[C@@H]1CCCN1C(=O)[C@H](CCCNC(=N)N)NC(=O)[C@H](N)CCCNC(=N)N)C(=O)O [Compound 12, D-Arg(D-Tic^7, Leu^8)desArg^9BK] (H-[dR]RPPGFS[dTic]L-OH; N-terminus and C-terminus assumed) | 200 | Inactive | – | 4470 | – | – | – | –
CC[C@H](C)[C@H](NC(=O)[C@H]1Cc2ccccc2CN1C(=O)[C@H](CO)NC(=O)[C@H](Cc1ccccc1)NC(=O)CNC(=O)[C@@H]1CCCN1C(=O)[C@@H]1CCCN1C(=O)[C@H](CCCNC(=N)N)NC(=O)[C@H](N)CCCNC(=N)N)C(=O)O [Compound 13, D-Arg(D-Tic^7, Ile^8)desArg^9BK] (H-[dR]RPPGFS[dTic]I-OH; N-terminus and C-terminus assumed) | 107 | Inactive | Inactive | 4570 | 6.97 | – | – | –
CC(C)C[C@H](NC(=O)[C@H]1Cc2ccccc2CN1C(=O)[C@H](CO)NC(=O)[C@H](Cc1ccccc1)NC(=O)CNC(=O)[C@@H]1C[C@@H](O)CN1C(=O)[C@@H]1CCCN1C(=O)[C@H](CCCNC(=N)N)NC(=O)[C@H](N)CCCNC(=N)N)C(=O)O [Compound 17, D-Arg(Hyp^3, D-Tic^7, Leu^8)desArg^9BK] (H-[dR]RP[Hyp]GFS[dTic]L-OH; N-terminus and C-terminus assumed) | 229 | Inactive | – | > 9120 | – | – | – | –
CC[C@H](C)[C@H](NC(=O)[C@@H](Cc1ccc2ccccc2c1)NC(=O)[C@H](CO)NC(=O)[C@H](Cc1ccccc1)NC(=O)CNC(=O)[C@@H]1CCCN1C(=O)[C@@H]1CCCN1C(=O)[C@H](CCCN=C(N)N)NC(=O)[C@H](CCCCN)NC(C)=O)C(=O)O [Compound 19, AcLys(D-βNal^7, Ile^8)desArg^9BK] (Ac-KRPPGFS[d2Nal]I-OH) | 3.98 | – | – | – | – | – | – | –
CC[C@H](C)[C@H](NC(=O)[C@@H](Cc1ccc2ccccc2c1)NC(=O)[C@H](CO)NC(=O)[C@H](Cc1ccccc1)NC(=O)CNC(=O)[C@@H]1CCCN1C(=O)[C@@H]1CCCN1C(=O)[C@H](CCCNC(=N)N)NC(=O)[C@H](N)CCCNC(=N)N)C(=O)O [Compound 23, D-Arg(D-βNal^7, Ile^8)desArg^9BK] (H-[dR]RPPGFS[d2Nal]I-OH; N-terminus and C-terminus assumed) | 19.1 | – | – | 427 | – | – | – | –
CC[C@H](C)[C@H](NC(=O)[C@@H](Cc1ccc2ccccc2c1)NC(=O)[C@H](CO)NC(=O)[C@H](Cc1ccccc1)NC(=O)CNC(=O)[C@@H]1CCCN1C(=O)[C@@H]1CCCN1C(=O)[C@H](CCCNC(=N)N)NC(=O)[C@H](N)CCCCN)C(=O)O [Compound 25, D-Lys(D-βNal^7, Ile^8)desArg^9BK] (H-[dK]RPPGFS[d2Nal]I-OH; N-terminus and C-terminus assumed) | 19.5 | – | – | 3720 | – | – | – | –
CC[C@H](C)[C@H](NC(=O)[C@@H](Cc1ccc2ccccc2c1)NC(=O)[C@H](CO)NC(=O)[C@H](Cc1ccccc1)NC(=O)CNC(=O)[C@@H]1CCCN1C(=O)[C@@H]1CCCN1C(=O)[C@H](CCCNC(=N)N)NC(=O)CNC)C(=O)O [Compound 26, Sar(D-βNal^7, Ile^8)desArg^9BK] (H-[Sar]RPPGFS[d2Nal]I-OH; N-terminus and C-terminus assumed) | 38 | – | Inactive | 9120 | – | – | – | –
CC(=O)N[C@@H](Cc1ccc(O)cc1)C(=O)NCCCCCC(=O)N[C@@H](CCCCN)C(=O)N[C@@H](CCCNC(=N)N)C(=O)N1CCC[C@H]1C(=O)N1CCC[C@H]1C(=O)NCC(=O)N[C@@H](Cc1ccccc1)C(=O)N[C@@H](CO)C(=O)N1CCC[C@H]1C(=O)N[C@@H](CC(C)C)C(=O)O [Compound 27, AcTyrεAhxLys(Leu^8)desArg^9BK] | 7.94 | P.ag. | – | – | – | 0 | 0.30 | 0.03
CNCC(=O)N[C@@H](Cc1ccc(O)cc1)C(=O)NCCCCCC(=O)N[C@@H](CCCCN)C(=O)N[C@@H](CCCNC(=N)N)C(=O)N1CCC[C@H]1C(=O)N1CCC[C@H]1C(=O)NCC(=O)N[C@@H](Cc1ccccc1)C(=O)N[C@@H](CO)C(=O)N1CCC[C@H]1C(=O)N[C@@H](CC(C)C)C(=O)O [Compound 28, SarTyrεAhxLys(Leu^8)desArg^9BK] | 6.76 | Inactive | – | – | – | – | – | –
